pEC50: −log10 of the molar value.
Experiments:
HBV [1] = test: Effect on intrahepatic HBV DNA levels in HepG2.2.15 cells (EC50); assay type: cell-based; conditions: Hepatitis B virus, 144 h, 6 days, intrahepatic HBV DNA by qPCR, read-out: Anti-HBV DNA (EC50)
Procedure: HepG2.2.15 cells were treated with compounds, at various concentrations in 10% FCS containing medium, at 37° C. for three days. After that the medium was removed and fresh medium containing the compound was added to the cells for another 3 days. After 6 days of treatment, intrahepatic HBV DNA from cell lysates were isolated. Then qPCR reaction of DNA was performed to measure total HBV DNA levels using specific primer set. The fifty-percent effective concentrations (EC50) for HBV DNA inhibition, relative to no drug controls, was determined using nonlinear fitting curve model. EC50 ranges for HBV DNA inhibition were as follows: A>0.3 μM, B=0.05-0.3 μM, C<0.05 μM (Table B).

HBV [2] = test: In vitro anti-HBV activity in HepG2.2.15 cell line (intracellular HBV DNA by qPCR at 1 μM); assay type: cell-based; conditions: Hepatitis B virus, 144 h; HepG2.2.15 cells, 1 μM compound, 6 days, intracellular HBV DNA as percentage compared to vehicle control (0.5% DMSO)
Method in brief: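 HepG2.2.15 cells given compound at 1 μM (0.5% DMSO final) for 3 days, then fresh compound-containing medium for 3 more days. After 6 days intracellular HBV DNA measured by qPCR. Expressed as % of 0.5% DMSO vehicle control and binned into letter ranges.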

HBV core protein (Cp149) = target: T1, HBV core protein (Cp149) (Hepatitis B virus genotype D subtype ayw, UniProt P03146); test: HBV capsid assembly by size exclusion chromatography (SEC); assay type: biochemical; conditions: 50 μM compound, 15 μM Cp149, 16 hours at 21° C.
T1 construct: HBV core C-terminally truncated protein (HBV Cp149); made in house

[3] = Cytotoxicity (MTT) in HepG2.2.15 cells; assay type: cell-based; conditions: human, 6 days treatment, read-out: HepG2.1.15 cytotoxicity (CC50)
Procedure: HepG2.2.15 cells were seeded onto 96-well culture plate and allowed to adhere for 24 hours. The cells were treated with various concentrations of the compounds for 6 days. After treatment, the culture media were discarded and further incubated with serum-free media containing […] of 3-(4,5-dimethylthiazol-2-yl)-2,5-diphenyl tetrazolium bromide (MTT) for 2 hour. The resulting formazan crystals were completely dissolved in dimethyl sulfoxide (DMSO), and then measured absorbance at 570 nm using microplate reader. The concentrations of compounds producing 50% cell death (CC50) were determined from a fitting of concentration-response curve (% cell viability versus concentration) to a four-parameter equation.

T1 sequence (P03146 1-149): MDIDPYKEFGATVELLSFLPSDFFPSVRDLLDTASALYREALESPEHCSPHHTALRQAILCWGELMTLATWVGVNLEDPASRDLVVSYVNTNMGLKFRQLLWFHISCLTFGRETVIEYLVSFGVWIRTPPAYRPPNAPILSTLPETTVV

Row | SMILES | pEC50 (HBV [1]) | activity at 1 µM (HBV [2]) [%] | Size of induced capsids based on SEC retention times (HBV core protein (Cp149)) | CC50 at 6 days [3] [nM]
1 | Cc1cc(NC(=O)[C@H]2CCN(C(=O)c3[nH]c4ccccc4c3Cl)C2)ccc1F [Example 2, (S)-1-(3-chloro-1H-indole-2-carbonyl)-N-(4-fluoro-3-methylphenyl)pyrrolidine-3-carboxamide] | > 7.30 | < 45 | capsid retention times between BAY 41-4109 and NVR 3-778 | > 25000
2 | O=C(Nc1cc(F)c(F)c(F)c1)[C@H]1CCN(C(=O)c2cc3ccccc3[nH]2)C1 [Example 4, (S)-1-(1H-indole-2-carbonyl)-N-(3,4,5-trifluorophenyl)pyrrolidine-3-carboxamide] | < 6.52 | < 45 | induced capsids similar in size to NVR 3-778 | > 25000
3 | C[C@H]1[C@@H](C(=O)Nc2cc(F)c(F)c(F)c2)CCN1C(=O)c1ccc(C#N)[nH]1 [Example 19, (2S,3S)-1-(5-cyano-1H-pyrrole-2-carbonyl)-2-methyl-N-(3,4,5-trifluorophenyl)pyrrolidine-3-carboxamide] | 6.52 to 7.30 | < 45 | induced capsids similar in size to NVR 3-778 | > 25000
4 | Cc1ccc(C(=O)N2CC[C@H](C(=O)Nc3cc(F)c(F)c(Cl)c3)[C@@H]2C)[nH]1 [Example 20, (2S,3S)—N-(3-chloro-4,5-difluorophenyl)-2-methyl-1-(5-methyl-1H-pyrrole-2-carbonyl) pyrrolidine-3-carboxamide] | < 6.52 | < 45 | induced capsids similar in size to NVR 3-778 | 10000 to 25000
5 | O=C(Nc1ccc(F)c(Cl)c1)[C@H]1CCN(C(=O)c2[nH]c3ccccc3c2Cl)C1 [Example 41, (S)-1-(3-chloro-1H-indole-2-carbonyl)-N-(3-chloro-4-fluoro-phenyl)pyrrolidine-3-carboxamide] | 6.52 to 7.30 | < 45 | – | –
6 | C[C@H]1[C@@H](C(=O)Nc2cc(F)c(F)c(F)c2)CCN1C(=O)c1ccc(Cl)[nH]1 [Example 60, (2S,3S)-1-(5-chloro-1H-pyrrole-2-carbonyl)-2-methyl-N-(3,4,5-trifluorophenyl)pyrrolidine-3-carboxamide] | 6.52 to 7.30 | < 45 | induced capsids similar in size to NVR 3-778 | > 25000
7 | C[C@H]1[C@@H](C(=O)Nc2ccc(F)c(C#N)c2)CCN1C(=O)c1ccc(Cl)[nH]1 [Example 65, (2S,3S)-1-(5-chloro-1H-pyrrole-2-carbonyl)-N-(3-cyano-4-fluorophenyl)-2-methylpyrrolidine-3-carboxamide] | 6.52 to 7.30 | < 45 | – | > 25000
8 | C[C@H]1[C@@H](C(=O)Nc2cc(F)c(F)c(F)c2)CCN1C(=O)c1nc2cccnc2[nH]1 [Example 70, (2S,3S)-1-(3H-imidazo[4,5-b]pyridine-2-carbonyl)-2-methyl-N-(3,4,5-trifluorophenyl)pyrrolidine-3-carboxamide] | 6.52 to 7.30 | 45 to 60 | – | > 25000
9 | Cc1ncnc(C)c1-c1ccc(C(=O)N2CC[C@H](C(=O)Nc3cc(F)c(F)c(Cl)c3)C2)[nH]1 [Example 100, (S)—N-(3-chloro-4,5-difluorophenyl)-1-(5-(4,6-dimethylpyrimidin-5-yl)-1H-pyrrole-2-carbonyl)pyrrolidine-3-carboxamide] | > 7.30 | < 45 | – | 10000 to 25000
10 | Cc1cc(NC(=O)[C@H]2CCN(C(=O)c3ccc(-c4c(C)n[nH]c4C)[nH]3)C2)ccc1F [Example 101, (S)-1-(5-(3,5-dimethyl-1H-pyrazol-4-yl)-1H-pyrrole-2-carbonyl)-N-(4-fluoro-3-methylphenyl)pyrrolidine-3-carboxamide] | 6.52 to 7.30 | < 45 | induced capsids similar in size to NVR 3-778 | > 25000
11 | Cc1cc(NC(=O)[C@H]2CCN(C(=O)c3ccc(-c4ccnnc4)[nH]3)[C@H]2C)ccc1F [Example 102, (2S,3S)—N-(4-fluoro-3-methylphenyl)-2-methyl-1-(5-(pyridazin-4-yl)-1H-pyrrole-2-carbonyl) pyrrolidine-3-carboxamide] | > 7.30 | < 45 | induced capsids similar in size to NVR 3-778 | > 25000
12 | Cc1cc(NC(=O)[C@H]2CCN(C(=O)c3ccc(-c4c(C)n[nH]c4C)[nH]3)[C@H]2C)ccc1F [Example 103, (2S,3S)-1-(5-(3,5-dimethyl-1H-pyrazol-4-yl)-1H-pyrrole-2-carbonyl)-N-(4-fluoro-3-methylphenyl)-2-methylpyrrolidine-3-carboxamide] | > 7.30 | < 45 | induced capsids similar in size to NVR 3-778 | 10000 to 25000
13 | Cc1n[nH]c(C)c1-c1ccc(C(=O)N2CC[C@H](C(=O)Nc3ccc(F)c(Cl)c3)[C@@H]2C)[nH]1 [Example 105, (2S,3S)—N-(3-chloro-4-fluorophenyl)-1-(5-(3,5-dimethyl-1H-pyrazol-4-yl)-1H-pyrrole-2-carbonyl)-2-methylpyrrolidine-3-carboxamide] | > 7.30 | < 45 | – | < 10000
14 | C[C@H]1[C@@H](C(=O)Nc2ccc(F)c(F)c2)CCN1C(=O)c1ccc(-c2ccnnc2)[nH]1 [Example 110, (2S,3S)—N-(3,4-difluorophenyl)-2-methyl-1-(5-(pyridazin-4-yl)-1H-pyrrole-2-carbonyl) pyrrolidine-3-carboxamide] | 6.52 to 7.30 | < 45 | induced capsids similar in size to NVR 3-778 | > 25000
15 | Cc1cnnc(C)c1-c1ccc(C(=O)N2CC[C@H](C(=O)Nc3ccc(F)c(C#N)c3)[C@@H]2C)[nH]1 [Example 116, (2S,3S)—N-(3-cyano-4-fluorophenyl)-1-(5-(3,5-dimethylpyridazin-4-yl)-1H-pyrrole-2-carbonyl)-2-methylpyrrolidine-3-carboxamide] | 6.52 to 7.30 | 45 to 60 | – | > 25000
16 | Cc1cc(NC(=O)[C@H]2CCN(C(=O)c3ccc(-c4c(C)cnnc4C)[nH]3)C2)ccc1F [Example 117, (S)-1-(5-(3,5-dimethylpyridazin-4-yl)-1H-pyrrole-2-carbonyl)-N-(4-fluoro-3-methylphenyl)pyrrolidine-3carboxamide] | > 7.30 | 45 to 60 | – | > 25000
17 | Cc1cc[nH]c(=O)c1-c1ccc(C(=O)N2CC[C@H](C(=O)Nc3ccc(F)c(Cl)c3)[C@@H]2C)[nH]1 [Example 119, (2S,3S)—N-(3-chloro-4-fluorophenyl)-2-methyl-1-(5-(4-methyl-2-oxo-1,2-dihydropyridin-3-yl)-1H-pyrrole-2-carbonyl)pyrrolidine-3-carboxamide] | 6.52 to 7.30 | < 45 | – | > 25000
18 | Cc1ncc(-c2ccc(C(=O)N3CC[C@H](C(=O)Nc4ccc(F)c(Cl)c4)[C@@H]3C)[nH]2)cn1 [Example 127, (2S,3S)—N-(3-chloro-4-fluorophenyl)-2-methyl-1-(5-(2-methylpyrimidin-5-yl)-1H-pyrrole-2-carbonyl)pyrrolidine-3-carboxamide] | 6.52 to 7.30 | < 45 | – | –
19 | Cc1ncnc(C)c1-c1ccc2c(Cl)c(C(=O)N3CC[C@H](C(=O)Nc4ccc(F)c(C#N)c4)C3)[nH]c2c1 [Example 135, (S)-1-(3-chloro-6-(4,6-dimethylpyrimidin-5-yl)-1H-indole-2-carbonyl)-N-(3-cyano-4-fluorophenyl)pyrrolidine-3-carboxamide] | 6.52 to 7.30 | < 45 | capsid retention times between BAY 41-4109 and NVR 3-778 | –
20 | C[C@H]1[C@@H](C(=O)Nc2ccc(F)c(C#N)c2)CCN1C(=O)c1[nH]c2cc(-c3cn[nH]c3)ccc2c1Cl [Example 141, (2S,3S)-1-(3-chloro-6-(1H-pyrazol-4-yl)-1H-indole-2-carbonyl)-N-(3-cyano-4-fluorophenyl)-2-methylpyrrolidine-3-carboxamide] | – | < 45 | capsid retention times between BAY 41-4109 and NVR 3-778 | –

From patent US20230391752A1, “PYRROLIDINE-3-CARBOXAMIDE DERIVATIVES AND RELATED USES” (Chulalongkorn University, priority 2020, published 2023)
